According to US11957646B2, “Methods and compositions of stable phenylephrine formulations” (Paragon BioTeck, Inc., priority 2013, dated 2024):

What was measured:
[1] = test system: vasopressor effect of (−)-epinephrine, (−)-norepinephrine, and tetraethylammonium; details: anesthetized rats, infusion of large amount; cited from earlier work
rabbit pupil = experiment: Dilation assay of R and S form phenylephrine solutions on rabbits; assay type: in vivo, NZW rabbits; details: 10% solution, 3 drops, versus untreated eye
Description: Two ophthalmic formulations, formulated 10% Phenylephrine hydrochloride (S-isomer) and the exemplary invention composition, 10% Phenylephrine hydrochloride (R-isomer) were tested for their ocular activity in NZW rabbits.
Both R and S form solutions (10% solution prepared as in Example 1) were test for dilation on rabbits. The first test rabbit received 3 drops of the S form formulation and the second test rabbit received 3 drops of the R form solution.

[2] = Chiral purity by chiral HPLC before and after 6 months storage at 2 to 8° C.; assay type: physicochemical; details: 10% solution
Description: Column-OJ-RH (150×4.6) mm, Flow: 0.6 ml min-1, Mobile Phase: 0.05% Ethylenediamine in Methanol, Column Temp: 25° C.; Detection wavelength: 270 nm. 4.0 mg sample in 1 mL ethanol was analyzed. The injection volume to HPLC is 3.0 μL.
R-Phenylephrine Hydrochloride Opthalmic Solution, 2.5% and 10% prepared as in Example 1 were stored at 2 to 8° C. The chiral purity of Sample 1 (10% solution) was assessed before low temperature stability test.
The chiral purity of R-Phenylephrine Hydrochloride was determined by the method and conditions as shown in Example 3.

SMILES	tachyphylaxis to vasopressor effect [1]	also measured
CNCC(O)c1ccc(O)c(O)c1 (single isomer, unassigned; (+)) [(+)-epinephrine]	induces tachyphylaxis	–
CNC[C@@H](O)c1cccc(O)c1 [S-Phenylephrine]	induces tachyphylaxis	pupil dilation (rabbit pupil): dilated the eye only slightly more than that was untreated
CNC[C@H](O)c1cccc(O)c1.Cl [R-Phenylephrine Hydrochloride, (R)-3-hydroxy-α-[(methylamino)methyl]benzenemethanol hydrochloride]	–	chiral purity before storage ([2]; before low temperature stability test): 99.3 % ee; chiral purity after 6 months storage ([2]; stored at 2 to 8° C. for 6 months): 99.3 % ee
CNCCc1ccc(O)c(O)c1 [epinine]	induces tachyphylaxis	–
NCC(O)c1ccc(O)c(O)c1 (single isomer, unassigned; (+)) [(+)-norepinephrine]	induces tachyphylaxis	–
CNC[C@H](O)c1cccc(O)c1 [(−)-phenylephrine]	induces tachyphylaxis	–
